Publication PMC4503722, “Novel Phenotypic Outcomes Identified for a Public Collection of Approved Drugs from a Publicly Accessible Panel of Assays” (PLoS ONE, 2015)
Read-outs that look alike come from different tables or passages of the source.

Legend:
[1] = system: INS-1E cells; assay: cells; assay type: cell-based, rat
[2] = system: INS-1E cells; assay type: cell-based, rat; details: 0.1 mM glucose; for 0.1mMGluc_INS1E SecretionMod Act IC50/EC50: assay number 9;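 as to 5mMGluc INS1E SecretionMod IC50/EC50: secreted insulin quantified by homogeneous immunoassay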
[3] = system: tonic K+ channel activity in INS-1E cells; assay: cells; assay type: cell-based, rat; details: for 0.1mMGluc_INS1E FluxOR IC50/EC50: assay number 10; for IC50: Rattus norvegicus, INS-1E, read-out: K+ channel assay IC50
[4] = system: endothelial tube formation in co-cultures of ECFCs and ADSCs treated with VEGF; assay: cells; assay type: cell-based, human; details: Homo sapiens, read-out: Anti-Angio IC50
[5] = system: nuclear β-catenin in C2C12 cells; assay: cells; assay type: cell-based; details: for EC50: Mus musculus
[6] = system: NCI-H716 cells; assay: cells; assay type: cell-based, Human
[7] = system: HeLa cells; assay: cells; assay type: cell-based; details: for EC50: Homo sapiens, read-out: CellCycle G2/M
[8] = system: DLD-1; assay: cells; assay type: cell-based; details: Homo sapiens
[9] = system: SW480; assay: cells; assay type: cell-based; details: Homo sapiens
[10] = system: HCT116; assay: cells; assay type: cell-based; details: Homo sapiens
[11] = system: HCT116 cells treated with a GSK3β inhibitor; assay: cells; assay type: cell-based; details: Homo sapiens
[12] = system: alkaline phosphatase (ALP) activity in C2C12 cells; assay type: cell-based; details: assay number 6; concentration response
[13] = target: T1, hp70S6K1 (RPS6KB1) (Homo sapiens, UniProt P23443); assay: Cerep LANCE kinase assay hp70S6K1 (S1 assay 31); assay type: biochemical; details: assay number 31
T1 construct: purchased Cerep (LANCE kinase assay platform, contract assay)
T1 sequence (P23443 whole entry): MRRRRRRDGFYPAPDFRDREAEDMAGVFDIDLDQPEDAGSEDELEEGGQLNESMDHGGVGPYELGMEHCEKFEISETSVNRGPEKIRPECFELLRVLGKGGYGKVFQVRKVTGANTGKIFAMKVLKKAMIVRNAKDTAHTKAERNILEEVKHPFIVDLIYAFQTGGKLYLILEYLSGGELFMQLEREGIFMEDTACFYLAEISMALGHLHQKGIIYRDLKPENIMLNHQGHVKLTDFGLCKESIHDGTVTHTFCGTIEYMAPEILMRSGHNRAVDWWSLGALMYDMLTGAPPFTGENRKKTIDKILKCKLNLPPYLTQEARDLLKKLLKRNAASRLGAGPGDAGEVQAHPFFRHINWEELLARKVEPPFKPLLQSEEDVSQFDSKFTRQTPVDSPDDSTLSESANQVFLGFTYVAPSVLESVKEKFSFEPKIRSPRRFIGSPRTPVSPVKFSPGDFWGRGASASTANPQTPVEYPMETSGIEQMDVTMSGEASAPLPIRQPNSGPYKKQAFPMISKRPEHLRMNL

[14] = target: T2, hKDR (Homo sapiens, UniProt P35968); assay: Cerep LANCE kinase assay hKDR (S1 assay 32); assay type: biochemical; details: assay number 32
T2 construct: purchased Cerep (LANCE kinase assay platform, contract assay)
T2 sequence (P35968 20-1356): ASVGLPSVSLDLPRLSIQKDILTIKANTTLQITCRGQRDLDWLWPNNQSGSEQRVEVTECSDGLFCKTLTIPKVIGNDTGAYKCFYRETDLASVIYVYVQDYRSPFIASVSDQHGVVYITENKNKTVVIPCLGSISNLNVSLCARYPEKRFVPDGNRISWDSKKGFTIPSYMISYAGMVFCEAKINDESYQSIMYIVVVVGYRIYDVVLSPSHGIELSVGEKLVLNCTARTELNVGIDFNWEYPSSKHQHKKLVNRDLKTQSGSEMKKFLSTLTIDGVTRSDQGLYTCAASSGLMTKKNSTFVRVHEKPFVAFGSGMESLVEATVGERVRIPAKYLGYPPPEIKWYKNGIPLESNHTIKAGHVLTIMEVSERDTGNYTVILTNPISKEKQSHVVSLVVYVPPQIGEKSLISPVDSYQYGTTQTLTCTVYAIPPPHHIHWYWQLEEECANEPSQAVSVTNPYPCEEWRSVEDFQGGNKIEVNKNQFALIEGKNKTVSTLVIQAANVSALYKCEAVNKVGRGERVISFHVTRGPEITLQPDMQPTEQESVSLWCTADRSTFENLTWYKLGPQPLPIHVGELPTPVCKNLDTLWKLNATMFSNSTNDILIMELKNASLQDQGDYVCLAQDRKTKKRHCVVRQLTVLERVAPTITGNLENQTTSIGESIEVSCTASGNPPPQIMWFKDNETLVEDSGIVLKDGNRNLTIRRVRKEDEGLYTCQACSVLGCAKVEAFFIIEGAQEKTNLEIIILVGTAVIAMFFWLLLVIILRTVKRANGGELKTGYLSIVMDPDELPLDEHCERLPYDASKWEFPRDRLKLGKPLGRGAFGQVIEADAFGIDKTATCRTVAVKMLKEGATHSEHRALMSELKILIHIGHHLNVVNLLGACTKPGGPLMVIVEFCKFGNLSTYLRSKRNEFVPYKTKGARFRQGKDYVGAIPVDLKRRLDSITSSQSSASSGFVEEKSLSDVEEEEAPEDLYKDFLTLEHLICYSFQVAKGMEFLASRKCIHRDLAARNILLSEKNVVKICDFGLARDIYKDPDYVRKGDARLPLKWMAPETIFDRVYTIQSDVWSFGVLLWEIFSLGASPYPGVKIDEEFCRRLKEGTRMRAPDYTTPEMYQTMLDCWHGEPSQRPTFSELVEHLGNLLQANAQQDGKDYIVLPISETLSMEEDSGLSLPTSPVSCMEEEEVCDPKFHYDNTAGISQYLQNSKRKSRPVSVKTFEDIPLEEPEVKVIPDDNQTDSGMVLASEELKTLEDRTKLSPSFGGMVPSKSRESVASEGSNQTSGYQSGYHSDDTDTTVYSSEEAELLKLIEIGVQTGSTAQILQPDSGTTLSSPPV

[15] = target: T3, hJAK2 (Homo sapiens, UniProt O60674); assay: Cerep LANCE kinase assay hJAK2 (S1 assay 33); assay type: biochemical; details: assay number 33
T3 construct: purchased Cerep (LANCE kinase assay platform, contract assay)
T3 sequence (O60674 whole entry): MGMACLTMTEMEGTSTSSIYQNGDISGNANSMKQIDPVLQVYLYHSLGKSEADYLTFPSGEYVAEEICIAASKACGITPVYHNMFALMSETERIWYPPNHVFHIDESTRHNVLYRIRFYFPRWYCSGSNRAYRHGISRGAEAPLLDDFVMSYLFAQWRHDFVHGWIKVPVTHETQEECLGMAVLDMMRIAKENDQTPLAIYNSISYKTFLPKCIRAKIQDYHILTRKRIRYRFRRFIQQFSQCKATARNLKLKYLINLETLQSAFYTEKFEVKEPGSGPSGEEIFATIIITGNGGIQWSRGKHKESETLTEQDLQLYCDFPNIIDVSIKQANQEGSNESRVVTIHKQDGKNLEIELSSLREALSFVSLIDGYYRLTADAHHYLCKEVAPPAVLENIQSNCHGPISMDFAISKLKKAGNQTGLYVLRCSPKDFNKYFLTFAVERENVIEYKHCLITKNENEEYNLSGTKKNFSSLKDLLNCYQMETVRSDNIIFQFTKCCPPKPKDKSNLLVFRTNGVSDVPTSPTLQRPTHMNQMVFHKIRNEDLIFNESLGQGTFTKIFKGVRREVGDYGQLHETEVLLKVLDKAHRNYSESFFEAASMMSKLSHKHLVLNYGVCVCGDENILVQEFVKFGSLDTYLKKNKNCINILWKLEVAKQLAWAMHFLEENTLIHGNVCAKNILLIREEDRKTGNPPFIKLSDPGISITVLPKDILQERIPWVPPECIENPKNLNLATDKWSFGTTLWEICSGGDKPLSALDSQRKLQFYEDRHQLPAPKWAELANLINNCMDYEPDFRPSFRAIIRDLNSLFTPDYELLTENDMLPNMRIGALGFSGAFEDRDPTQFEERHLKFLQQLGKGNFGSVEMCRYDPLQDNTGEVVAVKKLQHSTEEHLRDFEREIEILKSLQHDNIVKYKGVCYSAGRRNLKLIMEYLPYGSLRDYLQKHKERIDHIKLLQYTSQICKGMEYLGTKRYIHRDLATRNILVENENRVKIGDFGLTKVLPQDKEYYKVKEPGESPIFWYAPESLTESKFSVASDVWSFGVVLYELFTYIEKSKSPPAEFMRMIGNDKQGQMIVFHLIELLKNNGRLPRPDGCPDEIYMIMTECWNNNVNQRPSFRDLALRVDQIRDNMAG

[16] = target: T4, hGSK3b (Homo sapiens, UniProt P49841); assay: Cerep LANCE kinase assay hGSK3b (S1 assay 34); assay type: biochemical; details: assay number 34
T4 construct: purchased Cerep (LANCE kinase assay platform, contract assay)
T4 sequence (P49841 whole entry): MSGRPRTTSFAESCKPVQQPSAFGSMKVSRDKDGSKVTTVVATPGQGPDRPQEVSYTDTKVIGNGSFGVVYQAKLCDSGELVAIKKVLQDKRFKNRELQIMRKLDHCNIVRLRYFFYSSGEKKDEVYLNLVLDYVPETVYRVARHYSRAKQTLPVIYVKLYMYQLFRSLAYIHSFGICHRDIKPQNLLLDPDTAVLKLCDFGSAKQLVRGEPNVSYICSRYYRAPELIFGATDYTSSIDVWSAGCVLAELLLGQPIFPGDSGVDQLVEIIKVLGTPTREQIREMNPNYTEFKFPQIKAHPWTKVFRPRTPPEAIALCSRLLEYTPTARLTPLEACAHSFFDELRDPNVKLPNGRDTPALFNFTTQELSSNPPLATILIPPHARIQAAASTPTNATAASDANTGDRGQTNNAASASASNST

[17] = target: T5, hFLT3 (Homo sapiens, UniProt P36888); assay: Cerep LANCE kinase assay hFLT3 (S1 assay 35); assay type: biochemical; details: assay number 35
T5 construct: purchased Cerep (LANCE kinase assay platform, contract assay)
T5 sequence (P36888 27-993): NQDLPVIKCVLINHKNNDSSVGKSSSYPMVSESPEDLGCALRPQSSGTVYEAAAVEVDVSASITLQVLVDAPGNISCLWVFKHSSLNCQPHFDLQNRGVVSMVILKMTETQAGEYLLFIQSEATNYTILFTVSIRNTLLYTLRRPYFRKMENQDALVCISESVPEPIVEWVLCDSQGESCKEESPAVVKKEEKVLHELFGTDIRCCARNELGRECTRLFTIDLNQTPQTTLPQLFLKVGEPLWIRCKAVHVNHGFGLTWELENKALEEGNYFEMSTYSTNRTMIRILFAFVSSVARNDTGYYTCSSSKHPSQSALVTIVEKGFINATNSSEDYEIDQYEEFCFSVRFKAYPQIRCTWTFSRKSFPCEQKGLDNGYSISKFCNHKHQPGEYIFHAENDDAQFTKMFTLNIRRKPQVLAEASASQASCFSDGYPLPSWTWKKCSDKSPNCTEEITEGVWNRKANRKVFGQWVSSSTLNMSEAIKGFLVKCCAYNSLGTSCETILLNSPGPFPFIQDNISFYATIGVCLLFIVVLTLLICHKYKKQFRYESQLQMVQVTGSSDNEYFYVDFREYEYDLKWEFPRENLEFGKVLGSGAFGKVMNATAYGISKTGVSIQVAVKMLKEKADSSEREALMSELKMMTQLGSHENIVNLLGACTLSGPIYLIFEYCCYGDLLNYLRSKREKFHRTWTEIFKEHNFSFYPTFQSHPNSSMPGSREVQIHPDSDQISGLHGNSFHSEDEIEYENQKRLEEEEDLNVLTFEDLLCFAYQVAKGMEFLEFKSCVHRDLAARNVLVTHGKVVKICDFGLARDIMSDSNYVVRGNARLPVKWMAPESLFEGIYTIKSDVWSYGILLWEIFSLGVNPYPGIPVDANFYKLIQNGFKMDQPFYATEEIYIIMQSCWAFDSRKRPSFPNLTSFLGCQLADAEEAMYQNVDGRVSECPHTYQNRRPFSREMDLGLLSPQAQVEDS

[18] = Table 2, primary assay tube area, 20 = no response in concentration-response, 20.1 = inactive in single concentration testing
[19] = C2C12, Table 2, C2C12, […], 20 / 20.1 coded, read-out: Wnt pot. EC50
[20] = Rattus norvegicus, INS-1E; read-out: Ins. sec. EC50
[21] = Homo sapiens, NCI-H716; read-out: GLP1 sec. EC50
[22] = DLD-1, 72 h, Table 2, 72 h, Cell TiterGlo, non-adherent, 20 coded, read-out: DLD-1 viab. IC50
[23] = SW480, 72 h, Table 2, 72 h, Cell TiterGlo, non-adherent, 20 coded, read-out: SW480 viab. IC50
[24] = HCT-116, 72 h, read-out: HCT-116 viab. IC50, Table 2, basal, 72 h, Cell TiterGlo, non-adherent, 20 coded
[25] = HCT-116, read-out: HCT-116 (GSK3β) viab. IC50, Table 2, GSK3β inhibitor LY2090314 20 nM, 72 h, Cell TiterGlo, 20 coded
[26] = Rattus norvegicus, INS-1E, read-out: Ins. sec. EC50
[27] = Rattus norvegicus, INS-1E, read-out: Insulin Secretion
[28] = Homo sapiens, NCI-H716, read-out: GLP1 sec. EC50
[29] = DLD-1, 72 h, read-out: DLD-1 viab. IC50
[30] = SW480, 72 h, read-out: SW480 viab. IC50
[31] = SW480, read-out: Basal_Viability ATP SW480
[32] = HCT-116, 72 h, read-out: HCT-116 viab. IC50
[33] = HCT-116, 72 h, read-out: HCT-116 (GSK3β) viab. IC50

Question: Which results are given for `CN1CCCN(C(c2ccccc2)c2ccc(Cl)cc2)CC1` (stereo not shown) [NCGC00018271-07]?
Answer: 5mMGluc_INS1E SecretionMod IC50/EC50 ([1]; assay number 8; 5 mM glucose): > 3.703 µM; 0.1mMGluc_INS1E SecretionMod Act IC50/EC50 [2]: > 33.33 µM; 0.1mMGluc_INS1E FluxOR IC50/EC50 ([3]; 0.1 mM glucose): 15.6503 µM

Question: `CCN(CCCCOC(=O)c1ccc(OC)c(OC)c1)C(C)Cc1ccc(OC)cc1` (stereo not shown) [mebeverine, reference compound] was tested. Which IC50 [4, 18] did it give?
Answer: > 10 µM

Question: What about the EC50 [5, 19] of the same compound?
Answer: > 10 µM

Question: And the EC50 [1, 20]?
Answer: 2000 nM

Question: What about the EC50 ([1]; Rattus norvegicus; IC50 / EC50; INS-1E; read-out: Insulin Secretion) of the same compound?
Answer: 1950 nM

Question: What about the IC50 ([3]; 0.1 mM glucose, thallium flux) of the same compound?
Answer: 1.7 µM

Question: What about the EC50 [6, 21] of the same compound?
Answer: > 10 µM

Question: What about the “G2/M IC50 / EC50” value [7] of the same compound?
Answer: 20 (values shown as 20 indicate that the compound was tested in concentration-response and showed no response at the highest concentration tested (e.g. IC50 > 20 μM))

Question: And the EC50 ([7]; HeLa, IC50 / EC50, HeLa)?
Answer: > 10 µM

Question: What about the IC50 [8, 22] of the same compound?
Answer: > 20 µM

Question: What about the IC50 [9, 23] of the same compound?
Answer: > 20 µM

Question: What about the IC50 [10, 24] of the same compound?
Answer: > 20 µM

Question: What about the IC50 [11, 25] of the same compound?
Answer: > 20 µM

Question: Which IC50 [4] does the source give for `CN(C)CCC=C1c2ccccc2CCc2ccccc21` [amitriptyline, reference compound] here?
Answer: > 10 µM

Question: And the EC50 ([5]; C2C12, read-out: Wnt pot. EC50)?
Answer: > 10 µM

Question: What about the EC50 [1, 26] of the same compound?
Answer: 3000 nM

Question: What about the EC50 [1, 27] of the same compound?
Answer: 3000 nM

Question: What about the IC50 [3] of the same compound?
Answer: 6.2 µM

Question: What about the EC50 [6, 28] of the same compound?
Answer: > 10 µM

Question: What about the EC50 ([7]; HeLa) of the same compound?
Answer: > 10 µM

Question: And the IC50 [8, 29]?
Answer: > 20 µM

Question: And the IC50 [9, 30]?
Answer: 10.1 µM

Question: And the IC50 [9, 31]?
Answer: 10.1 µM

Question: And the IC50 [10, 32]?
Answer: > 20 µM

Question: And the IC50 [11, 33]?
Answer: > 20 µM

Question: Which results are given for `Nc1ccc2cc3ccc(N)cc3nc2c1` [NCGC00166245-04]?
Answer: WntCondMedia_bCatenin C2C12 IC50/EC50 ([5]; assay number 5, concentration response): 5.9868 µM; WntCondMedia_Alk Phos C2C12 IC50/EC50 [12]: > 20 µM; 5mMGluc_INS1E SecretionMod IC50/EC50 ([1]; assay number 8; 5 mM glucose): 20.6221 µM; 0.1mMGluc_INS1E SecretionMod Act IC50/EC50 [2]: > 33.33 µM; Hela CellCycMod PI 2N IC50/EC50 ([7]; assay number 14, 2N): > 10 µM; Hela CellCycMod PI S Phase IC50/EC50 ([7]; assay number 15, S phase): 3.4397 µM; Hela CellCycMod PI 4N IC50/EC50 ([7]; assay number 16, 4N): > 10 µM; Hela CellCycMod PI MI IC50/EC50 ([7]; assay number 17, MI): 2.4689 µM; Hela CellCycMod PI Cell Number IC50/EC50 ([7]; assay number 18, cell number): 1.3426 µM; hp70S6K1 LANCE IC50/EC50 [13]: > 20 µM; hKDR LANCE IC50/EC50 [14]: > 20 µM; hJAK2 LANCE IC50/EC50 [15]: > 20 µM; hGSK3b LANCE IC50/EC50 [16]: > 20 µM; hFLT3 LANCE IC50/EC50 [17]: > 20 µM

Question: Which “5mMGluc_INS1E SecretionMod IC50/EC50” value ([1]; assay number 8; 5 mM glucose) does the source give for `CN(C)CCN(Cc1ccc(Cl)cc1)c1ccccn1` [NCGC00016672-04] here?
Answer: 6.1408 µM

Question: And the “0.1mMGluc_INS1E SecretionMod Act IC50/EC50” value [2]?
Answer: 16.7904 µM

Question: And the “0.1mMGluc_INS1E FluxOR IC50/EC50” value ([3]; 0.1 mM glucose)?
Answer: 4.782 µM

Question: Which IC50 [4] does the source give for `CC(CC1c2ccccc2CCc2ccccc21)CN(C)C` (stereo not shown) [butriptyline, reference compound] here?
Answer: > 10 µM

Question: And the EC50 ([5]; C2C12, read-out: Wnt pot. EC50)?
Answer: > 10 µM

Question: And the EC50 [1, 26]?
Answer: 3600 nM

Question: And the EC50 [1, 27]?
Answer: 3640 nM

Question: What about the IC50 [3] of the same compound?
Answer: > 20 µM

Question: What about the EC50 [6, 28] of the same compound?
Answer: > 10 µM

Question: And the EC50 ([7]; HeLa)?
Answer: > 10 µM

Question: What about the IC50 [8, 29] of the same compound?
Answer: 8.1 µM

Question: And the IC50 ([8]; DLD-1, read-out: Basal_Viability ATP DLD-1)?
Answer: 8.1 µM

Question: What about the IC50 [9, 30] of the same compound?
Answer: 7.8 µM

Question: What about the IC50 [9, 31] of the same compound?
Answer: 7.84 µM

Question: What about the IC50 [10, 32] of the same compound?
Answer: 6.2 µM

Question: What about the IC50 ([10]; HCT-116, read-out: Basal_Viability ATP HCT116) of the same compound?
Answer: 6.21 µM

Question: And the IC50 [11, 33]?
Answer: > 20 µM

Question: Which IC50 [4, 18] does the source give for `CCN(CC)CCOc1ccccc1C(=O)CCc1ccccc1` [etafenone, reference compound] here?
Answer: > 10 µM

Question: And the EC50 [5, 19]?
Answer: > 10 µM

Question: And the EC50 [1, 20]?
Answer: 3900 nM

Question: What about the EC50 ([1]; Rattus norvegicus, INS-1E; read-out: Insulin Secretion) of the same compound?
Answer: 3890 nM

Question: And the IC50 ([3]; 0.1 mM glucose, thallium flux)?
Answer: 6.7 µM

Question: And the “G2/M IC50 / EC50” value [7]?
Answer: 20 (values shown as 20 indicate that the compound was tested in concentration-response and showed no response at the highest concentration tested (e.g. IC50 > 20 μM))

Question: What about the EC50 ([7]; HeLa, S2 Table, HeLa, 20 = no response at highest concentration) of the same compound?
Answer: > 10 µM

Question: And the IC50 [8, 22]?
Answer: > 20 µM

Question: What about the IC50 [9, 23] of the same compound?
Answer: 16.9 µM

Question: And the IC50 ([9]; SW480, basal, SW480, read-out: Basal_Viability ATP SW480)?
Answer: 16.9 µM

Question: What about the IC50 [10, 24] of the same compound?
Answer: 11.2 µM

Question: And the IC50 ([10]; HCT-116, basal, HCT116, read-out: Basal_Viability ATP HCT116)?
Answer: 11.2 µM

Question: And the IC50 [11, 25]?
Answer: > 20 µM

Question: `CCOc1cc(CC(=O)N[C@@H](CC(C)C)c2ccccc2N2CCCCC2)ccc1C(=O)O` [repaglinide, reference compound] was tested. Which IC50 [4, 18] did it give?
Answer: > 10 µM

Question: And the EC50 [5, 19]?
Answer: > 10 µM

Question: And the EC50 [1, 20]?
Answer: 30 nM

Question: And the EC50 ([1]; Rattus norvegicus; INS-1E, 5 mM glucose; read-out: insulin secretion EC50)?
Answer: 27 nM

Question: What about the “insulin secretion at low glucose (in words)” value ([2]; INS-1E) of the same compound?
Answer: stimulated insulin secretion at low glucose concentrations

Question: And the EC50 [6, 21]?
Answer: > 10 µM

Question: What about the “G2/M IC50 / EC50” value ([7]; Table 2, HeLa, […], 20 / 20.1 coded) of the same compound?
Answer: 20.1

Question: And the IC50 [8, 22]?
Answer: > 20 µM

Question: And the IC50 [9, 23]?
Answer: > 20 µM

Question: What about the IC50 [10, 24] of the same compound?
Answer: > 20 µM

Question: What about the IC50 [11, 25] of the same compound?
Answer: > 20 µM
